How the values were obtained:
Type in all cases: in vivo
[1] = tested on: soybean (Gl); assay: Test Example 6: crop plant selectivity by upland field soil treatment (soybean), phytotoxicity; design: scale not given here; settings: dose 6.3 g ai/10a, 21st day after application
Summary of the method: (§1)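 Greenhouse pot test with soil-applied compound after sowing soybean and weeds in sand; effects graded on day 21 after application.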

[2] = tested on: green foxtail (Se); assay: Test Example 5: crop plant selectivity by upland field soil treatment (wheat), herbicidal effects; design: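 grade of growth control; 5 = at least 90%; 4 = 70 to 90%; 3 = 50 to 70%; 2 = 30 to 50%; 1 = 10 to 30%; 0 = under 10%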; settings: dose 6.3 g ai/10a, 21st day after application
Summary of the method: (§2)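 Pre-emergence soil treatment, sand-filled pots, seeds covered with soil; greenhouse culture; visual scoring of weed control and wheat injury at day 21 post-application.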

[3] = tested on: slender amaranth (Am); assay: as above; design: scale not given here; settings: dose 6.3 g ai/10a, 21st day after application
Summary of the method: as §2

[4] = tested on: pale smartweed (Po); assay: as above; design: scale not given here; settings: dose 6.3 g ai/10a, 21st day after application
Summary of the method: as §2

[5] = tested on: China jute (Ab); assay: as above; design: scale not given here; settings: dose 6.3 g ai/10a, 21st day after application
Summary of the method: as §2

[6] = tested on: common lambsquarters (Ch); assay: as above; design: scale not given here; settings: dose 6.3 g ai/10a, 21st day after application
Summary of the method: as §2

[7] = tested on: green foxtail (Se); assay: Test Example 4: crop plant selectivity by upland field soil treatment (cotton), herbicidal effects; design: scale not given here; settings: dose 6.3 g ai/10 a, evaluated 21st day after application
Summary of the method: (§3)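 Sand-filled pots, seeds sown then soil-covered; soil application; greenhouse culture; visual scoring of weed control and cotton injury at day 21 post-application.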

[8] = tested on: slender amaranth (Am); assay: as above; design: scale not given here; settings: dose 6.3 g ai/10 a, evaluated 21st day after application
Summary of the method: as §3

[9] = tested on: pale smartweed (Po); assay: as above; design: scale not given here; settings: dose 6.3 g ai/10 a, evaluated 21st day after application
Summary of the method: as §3

[10] = tested on: China jute (Ab); assay: as above; design: scale not given here; settings: dose 6.3 g ai/10 a, evaluated 21st day after application
Summary of the method: as §3

[11] = tested on: common lambsquarters (Ch); assay: as above; design: scale not given here; settings: dose 6.3 g ai/10 a, evaluated 21st day after application
Summary of the method: as §3

[12] = tested on: corn (Ze); assay: Test Example 7: crop plant selectivity by upland field soil treatment (corn), phytotoxicity; design: scale not given here; settings: dose 6.3 g ai/10a, 21st day after application
Summary of the method: (§4)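 Sand-filled pot; corn plus weeds sown, soil-covered. Post-application greenhouse culture. Herbicidal effect/phytotoxicity rated day 21 per standard scale.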

[13] = tested on: wheat (Tr); assay: Test Example 5: crop plant selectivity by upland field soil treatment (wheat), phytotoxicity; design: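 grade of crop injury; 5 = at least 90%; 4 = 70 to 90%; 3 = 50 to 70%; 2 = 30 to 50%; 1 = 10 to 30%; 0 = under 10%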; settings: dose 6.3 g ai/10a, 21st day after application
Summary of the method: as §2

[14] = tested on: Digitaria ciliaris (Di); assay: Test Example 2: herbicidal effects by upland field soil treatment; settings: 100 g of the active ingredient per 10 ares;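 note: grade of growth control; 5 = at least 90%; 4 = 70 to 90%; 3 = 50 to 70%; 2 = 30 to 50%; 1 = 10 to 30%; 0 = under 10%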
Text: (§5) (Test on Herbicidal Effects by Upland Field Soil Treatment)

[15] = tested on: slender amaranth (Am); assay: as above; settings: 100 g of the active ingredient per 10 ares
Text: as §5

[16] = tested on: rice flatsedge (Ci); assay: as above; settings: 100 g of the active ingredient per 10 ares
Text: as §5

[17] = tested on: pale smartweed (Po); assay: as above; settings: 100 g of the active ingredient per 10 ares
Text: as §5

[18] = tested on: barnyardgrass (Ec); assay: as above; settings: 100 g of the active ingredient per 10 ares
Text: as §5

[19] = tested on: common lambsquarters (Ch); assay: as above; settings: 100 g of the active ingredient per 10 ares
Text: as §5

[20] = tested on: monochoria (Mo); assay: Test Example 1: herbicidal effects by paddy field soil treatment; settings: 100 g of the active ingredient per 10 ares, 21st day after the application, index 0-5 of Table 47;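 note: grade of growth control; 5 = at least 90%; 4 = 70 to 90%; 3 = 50 to 70%; 2 = 30 to 50%; 1 = 10 to 30%; 0 = under 10%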
Summary of the method: (§6)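 Greenhouse pot test in flooded paddy soil, dosed at 100 g a.i. per 10 ares; effect scored on day 21.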

[21] = tested on: barnyardgrass (Ec); assay: as above; settings: 100 g of the active ingredient per 10 ares, 21st day after the application, index 0-5 of Table 47
Summary of the method: as §6

[22] = tested on: bulrush (Sc); assay: as above; settings: 100 g of the active ingredient per 10 ares, 21st day after the application, index 0-5 of Table 47;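 note: grade of growth control; 5 = at least 90%; 4 = 70 to 90%; 3 = 50 to 70%; 2 = 30 to 50%; 1 = 10 to 30%; 0 = under 10%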
Summary of the method: as §6

[23] = tested on: green foxtail (Se); assay: Test Example 6: crop plant selectivity by upland field soil treatment (soybean), herbicidal effects; design: scale not given here; settings: dose 6.3 g ai/10a, 21st day after application
Summary of the method: as §1

[24] = tested on: slender amaranth (Am); assay: as above; design: scale not given here; settings: dose 6.3 g ai/10a, 21st day after application
Summary of the method: as §1

[25] = tested on: pale smartweed (Po); assay: as above; design: scale not given here; settings: dose 6.3 g ai/10a, 21st day after application
Summary of the method: as §1

[26] = tested on: China jute (Ab); assay: as above; design: scale not given here; settings: dose 6.3 g ai/10a, 21st day after application
Summary of the method: as §1

[27] = tested on: common lambsquarters (Ch); assay: as above; design: scale not given here; settings: dose 6.3 g ai/10a, 21st day after application
Summary of the method: as §1

[28] = tested on: cotton (Go); assay: Test Example 4: crop plant selectivity by upland field soil treatment (cotton), phytotoxicity; design: scale not given here; settings: dose 6.3 g ai/10 a, evaluated 21st day after application
Summary of the method: as §3

[29] = tested on: green foxtail (Se); assay: Test Example 7: crop plant selectivity by upland field soil treatment (corn), herbicidal effects; design: scale not given here; settings: dose 6.3 g ai/10a, 21st day after application
Summary of the method: as §4

[30] = tested on: slender amaranth (Am); assay: as above; design: scale not given here; settings: dose 6.3 g ai/10a, 21st day after application
Summary of the method: as §4

[31] = tested on: pale smartweed (Po); assay: as above; design: scale not given here; settings: dose 6.3 g ai/10a, 21st day after application
Summary of the method: as §4

[32] = tested on: China jute (Ab); assay: as above; design: scale not given here; settings: dose 6.3 g ai/10a, 21st day after application
Summary of the method: as §4

[33] = tested on: common lambsquarters (Ch); assay: as above; design: scale not given here; settings: dose 6.3 g ai/10a, 21st day after application
Summary of the method: as §4

[34] = tested on: slender amaranth (Am); assay: Test Example 3: herbicidal effects by upland field foliage treatment; design: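 grade of growth control; 5 = at least 90%; 4 = 70 to 90%; 3 = 50 to 70%; 2 = 30 to 50%; 1 = 10 to 30%; 0 = under 10%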
Summary of the method: (§7)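 Pot culture: sand, 120 cm^2 surface; seeds sown, soil-covered, greenhouse 2 weeks. Foliage treatment applied at that stage. Herbicidal effect rated by standard scale, day 14 post-treatment.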

[35] = tested on: rice flatsedge (Ci); assay: as above; design: scale not given here
Summary of the method: as §7

[36] = tested on: pale smartweed (Po); assay: as above; design: scale not given here
Summary of the method: as §7

[37] = tested on: barnyardgrass (Ec); assay: as above; design: scale not given here
Summary of the method: as §7

[38] = tested on: Diaitaria ciliaris (Di); assay: as above; design: scale not given here
Summary of the method: as §7

[39] = tested on: common lambsquarters (Ch); assay: as above; design: scale not given here
Summary of the method: as §7

[40] = evaluated on the 21st day after application
[41] = 100 g active ingredient per 10 ares, evaluated 14th day after treatment
[42] = 21st day after the application, index 0-5 of Table 47
[43] = 100 g of the active ingredient per 10 ares, evaluated on the 14th day after treatment

SMILES	Phytotoxicity Gl [1]	Herbicidal effects Se [2]	Herbicidal effects Am [3]	Herbicidal effects Po [4]	Herbicidal effects Ab [5]	Herbicidal effects Ch [6]	Herbicidal effects Se [7]	Herbicidal effects Am [8]	Herbicidal effects Po [9]	Herbicidal effects Ab [10]	Herbicidal effects Ch [11]	Phytotoxicity Ze [12]	Phytotoxicity Tr [13]	Herbicidal effects Mo [20]	Herbicidal effects Ec [21]	Herbicidal effects Sc [22]	Herbicidal effects Se [23]	Herbicidal effects Am [24]	Herbicidal effects Po [25]	Herbicidal effects Ab [26]	further results
CC(C)ON=Cc1cc(-c2ccc(C(F)(F)F)n(C)c2=O)c(F)cc1Cl [Compound 1-189]	1	5	5	5	5	5	5	5	5	5	5	1	1	5	5	5	5	5	5	5	Herbicidal effects Di [14, 40]: 5; Herbicidal effects Am [15, 40]: 5; Herbicidal effects Ci [16, 40]: 5; Herbicidal effects Po [17, 40]: 5; Herbicidal effects Ec [18, 40]: 5; Herbicidal effects Ch [19, 40]: 5; Herbicidal effects Ch [27]: 5; Phytotoxicity Go [28]: 0; Herbicidal effects Se [29]: 5; Herbicidal effects Am [30]: 5; Herbicidal effects Po [31]: 5; Herbicidal effects Ab [32]: 5; Herbicidal effects Ch [33]: 5; Herbicidal effects Am [34, 41]: 5; Herbicidal effects Ci [35, 41]: 5; Herbicidal effects Po [36, 41]: 5; Herbicidal effects Ec [37, 41]: 5; Herbicidal effects Di [38, 41]: 5; Herbicidal effects Ch [39, 41]: 5
CON=C(C)c1cc(-c2ccc(C(F)(F)F)n(C)c2=O)c(F)cc1Cl [Compound 1-192]	1	5	5	5	5	5	5	5	5	5	5	2	2	5	5	5	5	5	5	5	Herbicidal effects Di [14, 40]: 5; Herbicidal effects Am [15, 40]: 5; Herbicidal effects Ci [16, 40]: 5; Herbicidal effects Po [17, 40]: 5; Herbicidal effects Ec [18, 40]: 5; Herbicidal effects Ch [19, 40]: 5; Herbicidal effects Ch [27]: 5; Phytotoxicity Go [28]: 0; Herbicidal effects Se [29]: 5; Herbicidal effects Am [30]: 5; Herbicidal effects Po [31]: 5; Herbicidal effects Ab [32]: 5; Herbicidal effects Ch [33]: 5; Herbicidal effects Am [34, 41]: 5; Herbicidal effects Ci [35, 41]: 5; Herbicidal effects Po [36, 41]: 5; Herbicidal effects Ec [37, 41]: 5; Herbicidal effects Di [38, 41]: 5; Herbicidal effects Ch [39, 41]: 5
COc1cc(-c2ccc(C(F)(F)F)n(C)c2=O)c(Cl)cc1Cl [Compound 1-205]	1	5	5	5	4	5	5	5	5	4	5	2	1	5	5	5	5	5	5	4	Herbicidal effects Di [14, 40]: 5; Herbicidal effects Am [15, 40]: 5; Herbicidal effects Ci [16, 40]: 5; Herbicidal effects Po [17, 40]: 5; Herbicidal effects Ec [18, 40]: 5; Herbicidal effects Ch [19, 40]: 5; Herbicidal effects Ch [27]: 5; Phytotoxicity Go [28]: 1; Herbicidal effects Se [29]: 5; Herbicidal effects Am [30]: 5; Herbicidal effects Po [31]: 5; Herbicidal effects Ab [32]: 4; Herbicidal effects Ch [33]: 5; Herbicidal effects Am [34, 41]: 5; Herbicidal effects Ci [35, 41]: 5; Herbicidal effects Po [36, 41]: 5; Herbicidal effects Ec [37, 41]: 5; Herbicidal effects Di [38, 41]: 5; Herbicidal effects Ch [39, 41]: 5
COCCOCOc1cc(-c2ccc(C(F)(F)F)n(C)c2=O)c(F)cc1Cl [Compound 1-207]	1	5	5	5	5	5	5	5	5	5	5	1	1	5	5	5	5	5	5	5	Herbicidal effects Di [14, 40]: 5; Herbicidal effects Am [15, 40]: 5; Herbicidal effects Ci [16, 40]: 5; Herbicidal effects Po [17, 40]: 5; Herbicidal effects Ec [18, 40]: 5; Herbicidal effects Ch [19, 40]: 5; Herbicidal effects Ch [27]: 5; Phytotoxicity Go [28]: 0; Herbicidal effects Se [29]: 5; Herbicidal effects Am [30]: 5; Herbicidal effects Po [31]: 5; Herbicidal effects Ab [32]: 5; Herbicidal effects Ch [33]: 5; Herbicidal effects Am [34, 41]: 5; Herbicidal effects Ci [35, 41]: 5; Herbicidal effects Po [36, 41]: 5; Herbicidal effects Ec [37, 41]: 5; Herbicidal effects Di [38, 41]: 5; Herbicidal effects Ch [39, 41]: 5
CSc1cc(-c2ccc(C(F)(F)F)n(C)c2=O)c(F)cc1Cl [Compound No. 1-87, 3-(4-chloro-2-fluoro-5-methylthiophenyl)-1-methyl-6-trifluoromethyl-2(1H)-pyridone]	1	5	5	5	5	5	5	5	5	5	5	1	1	5	5	5	5	5	5	5	Herbicidal effects Di [14, 42]: 5; Herbicidal effects Am [15, 42]: 5; Herbicidal effects Ci [16, 42]: 5; Herbicidal effects Po [17, 42]: 5; Herbicidal effects Ec [18, 42]: 5; Herbicidal effects Ch [19, 42]: 5; Herbicidal effects Ch [27]: 5; Phytotoxicity Go [28]: 1; Herbicidal effects Se [29]: 5; Herbicidal effects Am [30]: 5; Herbicidal effects Po [31]: 5; Herbicidal effects Ab [32]: 5; Herbicidal effects Ch [33]: 5; Herbicidal effects Am [34, 43]: 5; Herbicidal effects Ci [35, 43]: 5; Herbicidal effects Po [36, 43]: 5; Herbicidal effects Ec [37, 43]: 5; Herbicidal effects Di [38, 43]: 5; Herbicidal effects Ch [39, 43]: 5
